{"source": "patent US11180468B2", "about": "“Prodrugs of urolithins and uses thereof” (Amazentis SA, priority 2013, dated 2021)", "key": {"[1]": {"assay": "Stability (degradation) in aqueous phosphate buffer solution at room temperature, HPLC percentage remaining", "type": "physicochemical", "procedure": "(§1) All HPLC analyses were carried out on a 5 μL sample on an Agilent 1100 series HPLC system including HPLC pump, auto injector, column oven and PDA detector with a Waters XBridgeC18, 50×2.1 mm, 5 μm column at a temperature of 40° C. and a flow rate of 0.4 mL/min using the following gradient: […]\nThe stability of the compounds in aqueous solution at room temperature was measured by dissolving the compounds in phosphate buffer of a pH chosen from 2, 3, 4, and/or 5. The compounds with low water solubility were first dissolved in DMSO and then diluted with phosphate buffer to contain 10% of DMSO. The samples were analysed by HPLC, as described above, at time 0 and several times thereafter. The peak area of the samples at these times were compared to the areas at t=0 to calculate the percentage remaining of the starting compound.\nThe solutions were prepared for each of the compounds as set out in Table 8. Plots of the percentage remaining of starting substance over time for each of the compounds measured are given in FIGS. 1-6, and t50 values (time taken for 50% of the starting compound to degrade) are given in Table 8."}, "[2]": {"assay": "Solubility in phosphate buffer at pH 4 at room temperature, filtered solution analysed by HPLC against DMSO standard", "type": "physicochemical", "details": "phosphate buffer pH 4, room temperature; for solubility: aqueous buffer, thermodynamic from solid", "procedure": "as §1\nA maximum amount of each compound was dissolved in 400 μL of phosphate buffer at pH 4 at room temperature in a filter vial (Agilent 0.45 μm PP Mini-UniPrep™). The filtered solutions were analysed by HPLC as described above. The peak area of the substance dissolved in buffer was compared to that of a standard prepared in DMSO."}, "[3]": {"assay": "Oral bioavailability: plasma concentration of Urolithin after oral administration to rats", "type": "in vivo, Sprague-Dawley rats", "details": "rat", "procedure": "The oral bioavailability of compounds of the invention can be assessed by orally administering a dose of compound in solution to Sprague-Dawley rats. Blood samples are collected from each rat before administration, and at intervals up to 24 hours thereafter. The blood samples are analysed for the plasma concentration of Urolithin. […] The Urolithin A was still present in the blood at a concentration of 2.6 mg/ml at 12 hours following administration in the case of the saline solution, and 1.30 mg/ml in the case of the DMSO/water solution. The Cmax and AUC of Urolithin A were higher when the compound of Example 4 was orally administered than when Urolithin A was orally administered."}, "[4]": {"details": "Urolithin B compounds, molar basis, read-out: Solubility (mM/L)"}, "[5]": {"details": "Urolithin B compounds, read-out: Solubility"}, "[6]": {"details": "Urolithin A compounds, molar basis, read-out: Solubility (mM/L)"}, "[7]": {"details": "Urolithin A compounds, read-out: Solubility"}}, "note": "Counter-ions that a name gives are not always drawn. Like-named read-outs stand apart in the source and are kept apart here."}
{"smiles": "NCC(=O)Oc1ccc2c(c1)oc(=O)c1ccccc12", "note": "[Example 3, 6-Oxo-6H-benzo[c]chromen-3-yl 2-aminoacetate hydrochloride]", "values": [{"measurement": "Degradation rate compared in words", "setting": "[1]; at pH 4", "value": "degrades more slowly than Example 1"}, {"measurement": "t50 (mins), time taken for 50% of the starting compound to degrade", "setting": "[1]; pH 4, 0.31 mg in 1 mL, FIG. 3", "value": 156, "unit": "min"}, {"measurement": "solubility", "setting": "[2]; [4]", "value": 4.94, "unit": "mM"}, {"measurement": "solubility", "setting": "[2]; [5]", "value": 1330, "unit": "µg/mL"}]}
{"smiles": "CC(C)C[C@H](N)C(=O)Oc1ccc2c(c1)oc(=O)c1ccccc12", "note": "[Example 5, 6-Oxo-6H-benzo[c]chromen-3-yl (2S)-2-amino-4-methylpentanoate hydrochloride]", "values": [{"measurement": "Degradation rate compared in words", "setting": "[1]; at pH 2 and pH 5", "value": "degrades more slowly than Example 1"}, {"measurement": "t50 (mins), time taken for 50% of the starting compound to degrade", "setting": "[1]; pH 2, 0.2 mg in 1 mL, FIG. 6", "value": 240, "unit": "min"}, {"measurement": "Increase in the rate of degradation when the pH of the solution is increased from 2 to 5", "setting": "[1]; pH 2 to pH 5", "value": "two-fold"}, {"measurement": "t50 (mins), time taken for 50% of the starting compound to degrade", "setting": "[1]; pH 5, 0.3 mg in 1 mL, FIG. 6", "value": 125, "unit": "min"}]}
{"smiles": "CC(C)CC(N)C(=O)Oc1ccc2c(c1)oc(=O)c1cc(OC(=O)[C@H](N)CC(C)C)ccc12", "note": "(stereo in doubt) [Example 4, 8-{[(2R)-2-Amino-4-methylpentanoyl]oxy}-6-oxo-6H-benzo[c]chromen-3-yl (2S)-2-amino-4-methylpentanoate dihydrochloride]", "values": [{"measurement": "Degradation rate compared in words", "setting": "[1]; at pH 4", "value": "degrades more slowly than Example 3"}, {"measurement": "t50 (mins), time taken for 50% of the starting compound to degrade", "setting": "[1]; pH 4, 0.4 mg in 1 mL, FIG. 4", "value": 405, "unit": "min"}, {"measurement": "solubility", "setting": "[2]; [6]", "value": 4.73, "unit": "mM"}, {"measurement": "solubility", "setting": "[2]; [7]", "value": 2150, "unit": "µg/mL"}, {"measurement": "Solubility compared in words", "setting": "[2]", "value": "particularly soluble compared to the parent compound"}, {"measurement": "AUC of Urolithin A compared with oral administration of Urolithin A", "setting": "[3]", "value": "higher"}, {"measurement": "Cmax of Urolithin A compared with oral administration of Urolithin A", "setting": "[3]", "value": "higher"}, {"measurement": "Delivery of Urolithin A into the blood following oral administration, compared with oral Urolithin A", "setting": "[3]", "value": "at least as effectively"}]}
{"smiles": "O=c1oc2cc(O)ccc2c2ccc(O)cc12", "note": "[Urolithin A, reference compound]", "values": [{"measurement": "solubility", "setting": "[2]; [6]", "value": 0.00057, "unit": "mM"}, {"measurement": "solubility", "setting": "[2]; [7]", "value": 0.13, "unit": "µg/mL"}]}
{"smiles": "O=c1oc2cc(O)ccc2c2ccccc12", "note": "[Urolithin B, reference compound]", "values": [{"measurement": "solubility", "setting": "[2]; [4]", "value": 0.00127, "unit": "mM"}, {"measurement": "solubility", "setting": "[2]; [5]", "value": 0.27, "unit": "µg/mL"}]}
{"smiles": "NCC(=O)Oc1ccc2c(c1)oc(=O)c1cc(OC(=O)CN)ccc12", "note": "[Example 1, 8-[(2-Aminoacetyl)oxy]-6-oxo-6H-benzo[c]chromen-3-yl 2-aminoacetate dihydrochloride]", "values": [{"measurement": "Degradation rate compared in words", "setting": "[1]; at pH 4", "value": "degrades more slowly than Example 2"}, {"measurement": "t50 (mins), time taken for 50% of the starting compound to degrade", "setting": "[1]; pH 2, 0.16 mg in 1 mL, FIG. 5", "value": 81, "unit": "min"}, {"measurement": "t50 (mins), time taken for 50% of the starting compound to degrade", "setting": "[1]; pH 4, 0.77 mg in 1 mL, FIG. 1", "value": 74, "unit": "min"}, {"measurement": "t50 (mins), time taken for 50% of the starting compound to degrade", "setting": "[1]; pH 5, 0.16 mg in 1 mL, FIG. 5", "value": 27, "unit": "min"}, {"measurement": "solubility", "setting": "[2]; [6]", "value": 5.64, "unit": "mM"}, {"measurement": "solubility", "setting": "[2]; [7]", "value": 1930, "unit": "µg/mL"}, {"measurement": "Solubility compared in words", "setting": "[2]", "value": "more soluble than the Glycine urolithin B compound (Example 3)"}]}
{"smiles": "CC(N)C(=O)Oc1ccc2c(c1)oc(=O)c1cc(OC(=O)[C@@H](C)N)ccc12", "note": "(stereo in doubt) [Example 2, 8-{[(2R)-2-Aminopropanoyl]oxy}-6-oxo-6H-benzo[c]chromen-3-yl (2S)-2-aminopropanoate dihydrochloride]", "values": [{"measurement": "t50 (mins), time taken for 50% of the starting compound to degrade", "setting": "[1]; pH 4, 0.33 mg in 0.66 mL (second time), FIG. 2", "value": 31, "unit": "min"}, {"measurement": "t50 (mins), time taken for 50% of the starting compound to degrade", "setting": "[1]; pH 4, 0.72 mg in 0.4 mL, FIG. 2", "value": 56, "unit": "min"}, {"measurement": "t50 (mins), time taken for 50% of the starting compound to degrade", "setting": "[1]; pH 4, 0.94 mg in 1.8 mL (first time), FIG. 2", "value": 29, "unit": "min"}, {"measurement": "solubility", "setting": "[2]; [6]", "value": 4.86, "unit": "mM"}, {"measurement": "solubility", "setting": "[2]; [7]", "value": 1800, "unit": "µg/mL"}]}
